Source: US20120083473A1, “TREATMENT OF CONDITIONS BY TOLL-LIKE RECEPTOR MODULATORS” (priority 2010, published 2012)
Entries after “also recorded” stand apart in the source; their conditions may differ.

Tested on: rat collagen-induced arthritis (CIA) model
Experiment: Rat collagen-induced arthritis (CIA) model
Assay type: in vivo
Conditions: for day of definite disease onset / bone erosion score / cumulative arthritis score / cartilage erosion score / joint inflammation score / proteoglycan loss score: mean±SD; for cartilage erosion score / joint inflammation score / proteoglycan loss score: scale 0-3
Experimental: Collagen-induced arthritis was induced in 9 weeks old female Lewis rats using a two-steps immunization protocol. On day 0, rats were immunized by intradermal injection of approximately 1 ml of 1 mg/ml bovine type II collagen (Chondrex) emulsified in Incomplete Freund's adjuvant (Difco Laboratories) at several sites at the back. Arthritis development was accelerated by an intradermal booster immunization in the back and tail-base with 100 µg bovine type II collagen (Chondrex) in IFA (Difco Laboratories) at day 7. For immunization, rats were anesthetized by inhalation of 3-4% isoflurane in a mixture of oxygen and nitrous oxide.
Rats were evaluated 6 times per week (once during weekends) for arthritis severity using a macroscopic scoring system of 0-4 for each paw as detailed below:
0=no signs of arthritis 0.5=unloading of the paw and/or light redness of ankle joint 1=redness and mild swelling of the ankle joint 2=redness and swelling of paw 3=severe redness and swelling of entire paw including digits 4=maximally swollen paw, often involvement of multiple joints and extending toward knee joint.
The total clinical score of an individual rat is defined as the sum of the clinical scores of all four paws for each day. At the end of the study, the cumulative arthritis score was calculated for each rat. This cumulative arthritis score is defined as the sum of the total clinical scores obtained from day 0 till day 24.
The day of disease is defined as the first day of three consecutive days on which a total clinical arthritis score of more than 0 was observed.
The swelling of the hind paws was measured during weekdays with a laser scan micrometer (Mitutoyo, LSM-503S/6200). At the end of the study, the cumulative paw swelling was calculated for each rat as follows: a baseline value was determined by averaging the paw thickness values of day 0-9 when no signs of arthritis were visible in the vehicle-treated group. Next, increase in paw thickness was calculated by subtracting the baseline value from the paw thickness values obtained on day 10-24 (delta value). Cumulative paw swelling is defined as the sum of the delta paw thickness values from day 10 till 24.
Left ankle joints were decalcified in a solution of 10% EDTA in distilled water, pH 7.4 for at least two months. After a wash in running tap water for 24 hours, the joints were embedded in paraffin and cut into 5 μm sections.
Joint inflammation was scored on Haematoxylin Phloxine Saffron (HPS) stained sections. The inflammation score is based on the amount of inflammatory cells infiltrated into the joint on a scale of 0-3:
0=no inflammation 1=inflammatory cells in muscle layer (surrounding tissue) 2=infiltration of inflammatory cells in the joint 3=severe infiltration of inflammatory cells in the joint
Cartilage erosion was also scored on HPS stained sections. Erosion was scored in three compartments between tarsal bones and the tibia bone as the disappearance of cartilage or chondrocyte death on a scale of 0-3:
0=no erosion 1=erosion in 1 joint compartment 2=erosion in 2 joint compartments 3=erosion in 3 joint compartments
Proteoglycan (PG) loss was scored on Saffranin 0/Fast green-stained sections on a scale of 0-3, indicating increasing loss of staining from the cartilage tissue:
0=no PG loss 1=1-33% loss of PG staining 2=34-66% loss of PG staining 3=67%-complete loss of PG staining
Bone erosion was scored on HPS stained sections. Erosion was scored at four different locations in two compartments as the number of osteoclasts per field (average value is given in Appendix 8): […]

## COCCOc1nc(N)c2nc(O)n(Cc3ccc(C(=O)NCCOCCOCCOCCOCCOCCOCCn4cc(CCC(=O)O)nn4)cc3)c2n1 [Compound 2]
1.6 mg/kg
  day on which disease incidence of 100% was reached: 11 days
  bone erosion score: 0.63±0.17
  cumulative arthritis score: 77.3±11.9 a.u.
  cartilage erosion score: 2.09±0.65
  joint inflammation score: 2.69±0.37
  proteoglycan loss score: 2.41±0.40
1.6 mg/kg i.p. once daily from day 10
  day of definite disease onset: 10.3 ± 0.5 days
3.2 mg/kg
  day on which disease incidence of 100% was reached: 13 days
  bone erosion score: 0.62±0.09
  cumulative arthritis score: 83.3±12.2 a.u.
  cartilage erosion score: 2.34±0.68
  joint inflammation score: 2.66±0.33
  proteoglycan loss score: 2.53±0.21
3.2 mg/kg i.p. once daily from day 10
  day of definite disease onset: 10.4 ± 1.1 days
6.3 mg/kg
  day on which disease incidence of 100% was reached: 11 days
  bone erosion score: 0.69±0.13
  cumulative arthritis score: 81.1±14.6 a.u.
  cartilage erosion score: 2.06±0.65
  joint inflammation score: 2.69±0.32
  proteoglycan loss score: 2.47±0.34
6.3 mg/kg i.p. once daily from day 10
  day of definite disease onset: 10.4 ± 0.5 days
12.6 mg/kg
  day on which disease incidence of 100% was reached: 15 days
  cartilage erosion score: 1.81±0.91
  proteoglycan loss score: 1.97±0.59
12.6 mg/kg i.p. once daily from day 10
  day of definite disease onset: 11.5 ± 2.0 days
12.6 mg/kg, day 22, 23 and 24 (p=0.036, p=0.017, p=0.044)
  total clinical arthritis score versus vehicle, end of the study: statistically exceeded that of the vehicle group
12.6 mg/kg, left ankle histology
  joint inflammation score: 2.41±0.42
12.6 mg/kg, day 0 till day 24
  cumulative arthritis score: 77.6±19.9 a.u.
12.6 mg/kg, osteoclast score 0-3
  bone erosion score: 0.56±0.14
12.6 mg/kg, p=0.003 left, p=0.004 right hind paw
  cumulative hind paw swelling versus vehicle: significantly reduced; also recorded: reduction
12.6 mg/kg, p=0.026
  proteoglycan loss versus vehicle: significantly diminished; also recorded: significant suppression
12.6 mg/kg, significant on day 13 and 16 (p=0.018, p=0.011)
  clinical signs of arthritis / total clinical arthritis score versus vehicle, initial phase: initially suppressed
6.3, 3.2 and 1.6 mg/kg groups
  development of clinical signs of arthritis over time: comparable to the vehicle group
6.3, 3.2 or 1.6 mg/kg
  arthritis development compared to the vehicle group: did not significantly reduce
Compound 2 12.6, 6.3, 3.2, 1.6 mg/kg
  paw thickness: dose-dependent reduction
All Compound 2 groups (12.6, 6.3, 3.2, 1.6 mg/kg), till the end of the study
  disease incidence: 100%
Different concentrations Compound 2
  body weight: decreased gradually after disease onset, which was similar to the vehicle group
Highest dose level (12.6 mg/kg), therapeutic i.p. from day 10
  arthritis development: limited suppression
Other Compound 2 dose groups (6.3, 3.2, 1.6 mg/kg)
  hind paw swelling versus vehicle: no significant differences
